Data published in ChEMBL document CHEMBL1909046, “DrugMatrix in vitro pharmacology data”.

Legend:
[1] = DRUGMATRIX: ATPase, Na+/K+ enzyme inhibition (substrate: ATP); assay type: tissue-based, Sus scrofa, Heart; conditions: Not Active = under 50% inhibition at 10 µM
[2] = DRUGMATRIX: Calcium Channel Type L, Dihydropyridine radioligand binding (ligand: [3H] Nitrendipine); assay type: cell membranes, Rattus norvegicus, Wistar, Cerebral cortex, Membrane; conditions: Not Active = under 50% inhibition at 10 µM
[3] = target: T1, Vasoactive intestinal polypeptide receptor 1 (Homo sapiens, UniProt P32241); assay type: cell membranes, Membrane; conditions: ht-29; note: in other assays of this panel Not Active means under 50% inhibition at 10 µM
T1 sequence (P32241 whole entry): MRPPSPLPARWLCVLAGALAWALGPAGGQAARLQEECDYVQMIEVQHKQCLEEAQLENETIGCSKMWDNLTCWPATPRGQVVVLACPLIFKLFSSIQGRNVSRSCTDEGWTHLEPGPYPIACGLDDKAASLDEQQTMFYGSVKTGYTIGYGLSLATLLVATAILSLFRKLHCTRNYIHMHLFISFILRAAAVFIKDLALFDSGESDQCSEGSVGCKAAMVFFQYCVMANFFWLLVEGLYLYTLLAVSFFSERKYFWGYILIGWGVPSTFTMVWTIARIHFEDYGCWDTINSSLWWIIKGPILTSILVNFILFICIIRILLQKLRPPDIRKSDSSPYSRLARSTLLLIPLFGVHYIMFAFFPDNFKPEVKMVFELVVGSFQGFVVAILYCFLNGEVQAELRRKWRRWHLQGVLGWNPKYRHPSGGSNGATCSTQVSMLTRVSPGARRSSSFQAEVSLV

[4] = target: Cannabinoid receptor 1 (Homo sapiens, UniProt P21554); assay type: cell membranes, Membrane; conditions: chem-1; note: in other assays of this panel Not Active means under 50% inhibition at 10 µM
Cannabinoid receptor 1, sequence (P21554 whole entry): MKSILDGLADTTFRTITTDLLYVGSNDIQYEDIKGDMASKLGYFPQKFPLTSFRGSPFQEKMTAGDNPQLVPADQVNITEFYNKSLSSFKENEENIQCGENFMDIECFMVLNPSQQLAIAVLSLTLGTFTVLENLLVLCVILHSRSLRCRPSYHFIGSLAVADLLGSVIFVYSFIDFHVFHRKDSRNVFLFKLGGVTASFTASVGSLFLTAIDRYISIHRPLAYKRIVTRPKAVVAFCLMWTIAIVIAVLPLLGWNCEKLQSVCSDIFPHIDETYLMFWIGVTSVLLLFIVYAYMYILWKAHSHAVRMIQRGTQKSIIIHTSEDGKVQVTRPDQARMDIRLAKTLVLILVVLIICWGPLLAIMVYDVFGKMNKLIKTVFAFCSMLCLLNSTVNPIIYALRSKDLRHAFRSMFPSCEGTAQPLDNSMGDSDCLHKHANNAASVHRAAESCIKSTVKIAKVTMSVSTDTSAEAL

[5] = target: T2, C-C chemokine receptor type 4 (Homo sapiens, UniProt P51679); assay type: cell membranes, Membrane; conditions: chem-1; note: in other assays of this panel Not Active means under 50% inhibition at 10 µM
T2 sequence (P51679 whole entry): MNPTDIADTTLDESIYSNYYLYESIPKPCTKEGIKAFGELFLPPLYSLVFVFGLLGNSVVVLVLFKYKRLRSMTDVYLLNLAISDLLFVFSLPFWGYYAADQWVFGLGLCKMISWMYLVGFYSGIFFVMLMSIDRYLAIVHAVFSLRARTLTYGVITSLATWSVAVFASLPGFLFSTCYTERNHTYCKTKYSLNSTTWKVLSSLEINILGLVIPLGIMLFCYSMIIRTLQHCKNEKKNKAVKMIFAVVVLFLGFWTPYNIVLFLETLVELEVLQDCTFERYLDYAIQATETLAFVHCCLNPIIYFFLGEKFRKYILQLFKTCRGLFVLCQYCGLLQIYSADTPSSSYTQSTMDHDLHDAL

[6] = target: Prostaglandin G/H synthase 1 (Homo sapiens, UniProt P23219); test: biochemical; assay type: tissue-based, Platelet; conditions: platelet;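 note: inhibition of COX-1 enzyme activity, with arachidonic acid supplied as substrate; in other assays of this panel Not Active means under 50% inhibition at 10 µM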
Prostaglandin G/H synthase 1, sequence (P23219 whole entry): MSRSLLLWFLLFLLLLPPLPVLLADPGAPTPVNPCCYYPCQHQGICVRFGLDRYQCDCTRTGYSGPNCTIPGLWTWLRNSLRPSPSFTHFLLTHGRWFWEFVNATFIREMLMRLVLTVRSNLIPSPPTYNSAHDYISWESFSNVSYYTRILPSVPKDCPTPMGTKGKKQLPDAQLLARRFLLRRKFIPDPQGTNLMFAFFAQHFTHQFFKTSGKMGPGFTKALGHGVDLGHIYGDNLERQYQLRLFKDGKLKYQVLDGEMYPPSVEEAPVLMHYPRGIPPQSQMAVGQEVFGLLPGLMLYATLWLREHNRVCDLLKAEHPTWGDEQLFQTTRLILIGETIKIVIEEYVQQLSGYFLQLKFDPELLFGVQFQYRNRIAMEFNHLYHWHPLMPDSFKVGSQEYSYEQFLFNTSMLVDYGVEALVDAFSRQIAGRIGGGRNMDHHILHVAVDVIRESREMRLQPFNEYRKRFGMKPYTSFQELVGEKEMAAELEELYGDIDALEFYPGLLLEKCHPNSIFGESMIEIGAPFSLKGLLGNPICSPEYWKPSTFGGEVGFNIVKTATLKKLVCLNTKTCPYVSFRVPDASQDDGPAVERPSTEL

[7] = target: T3, Endothelin-1 receptor (Homo sapiens, UniProt P25101); assay type: cell membranes, Membrane; conditions: cho-k1; note: in other assays of this panel Not Active means under 50% inhibition at 10 µM
T3 sequence (P25101 whole entry): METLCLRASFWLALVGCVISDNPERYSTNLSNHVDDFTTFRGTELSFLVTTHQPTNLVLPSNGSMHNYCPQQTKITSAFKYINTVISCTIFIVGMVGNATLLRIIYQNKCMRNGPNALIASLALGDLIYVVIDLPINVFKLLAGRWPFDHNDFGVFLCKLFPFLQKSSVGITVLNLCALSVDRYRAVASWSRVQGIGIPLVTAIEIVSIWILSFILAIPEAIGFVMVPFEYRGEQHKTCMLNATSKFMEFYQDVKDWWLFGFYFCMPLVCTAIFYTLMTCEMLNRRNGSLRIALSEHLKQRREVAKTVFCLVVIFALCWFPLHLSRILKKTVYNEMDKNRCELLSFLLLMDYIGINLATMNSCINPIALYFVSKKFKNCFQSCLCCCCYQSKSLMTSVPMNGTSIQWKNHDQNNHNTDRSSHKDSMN

[8] = target: T4, Neuropeptide Y receptor type 1 (Homo sapiens, UniProt P25929); assay type: cell membranes, Membrane; conditions: sk-n-mc; note: in other assays of this panel Not Active means under 50% inhibition at 10 µM
T4 sequence (P25929 whole entry): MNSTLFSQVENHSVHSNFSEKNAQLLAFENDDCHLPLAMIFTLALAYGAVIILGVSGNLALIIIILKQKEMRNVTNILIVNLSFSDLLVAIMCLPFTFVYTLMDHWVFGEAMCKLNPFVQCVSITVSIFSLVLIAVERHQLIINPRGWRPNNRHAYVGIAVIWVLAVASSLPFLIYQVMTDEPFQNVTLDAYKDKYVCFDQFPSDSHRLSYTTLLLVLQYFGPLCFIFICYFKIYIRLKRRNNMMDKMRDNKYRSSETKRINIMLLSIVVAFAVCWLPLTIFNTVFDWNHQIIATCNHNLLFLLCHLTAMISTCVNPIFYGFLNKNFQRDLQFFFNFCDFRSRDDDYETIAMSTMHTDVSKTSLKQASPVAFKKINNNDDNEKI

[9] = target: T5, Caspase-1 (Homo sapiens, UniProt P29466); set-up: species or system Escherichia coli
T5 sequence (P29466 whole entry): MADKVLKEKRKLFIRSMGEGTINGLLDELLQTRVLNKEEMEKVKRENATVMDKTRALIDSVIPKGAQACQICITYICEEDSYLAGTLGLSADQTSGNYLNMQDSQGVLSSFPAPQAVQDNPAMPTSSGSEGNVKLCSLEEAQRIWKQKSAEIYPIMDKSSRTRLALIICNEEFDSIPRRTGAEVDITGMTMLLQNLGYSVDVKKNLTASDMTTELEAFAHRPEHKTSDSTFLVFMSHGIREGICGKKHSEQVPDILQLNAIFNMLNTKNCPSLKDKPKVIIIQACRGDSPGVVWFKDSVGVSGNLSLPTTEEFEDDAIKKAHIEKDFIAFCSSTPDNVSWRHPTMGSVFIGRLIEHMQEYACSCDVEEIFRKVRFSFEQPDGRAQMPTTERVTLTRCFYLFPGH

[10] = target: T6, Adenosine receptor A1 (Homo sapiens, UniProt P30542); assay type: cell membranes, CHO, Membrane
T6 sequence (P30542 whole entry): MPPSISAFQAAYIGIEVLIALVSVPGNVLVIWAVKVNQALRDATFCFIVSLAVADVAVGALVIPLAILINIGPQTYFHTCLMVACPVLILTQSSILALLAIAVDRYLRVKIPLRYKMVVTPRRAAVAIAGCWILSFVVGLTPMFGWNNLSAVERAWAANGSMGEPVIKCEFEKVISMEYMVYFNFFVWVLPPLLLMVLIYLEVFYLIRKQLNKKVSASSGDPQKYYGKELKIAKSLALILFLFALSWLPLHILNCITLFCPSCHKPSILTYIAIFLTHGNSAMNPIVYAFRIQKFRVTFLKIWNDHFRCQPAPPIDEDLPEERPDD

SMILES	IC50 [1]	Ki [1]	IC50 [2]	Ki [2]	IC50 [3]	IC50 [4]	IC50 [5]	IC50 [6]	IC50 [7]	IC50 [8]	IC50 [9]	IC50 ([10]; cho)	IC50 ([2]; read-out: IC50) [nM]	Ki ([2]; read-out: Ki) [nM]	IC50 ([10]; read-out: IC50) [µM]	Ki ([10]; read-out: Ki) [µM]
CCC[C@@H]1C[C@@H](C(=O)N[C@@H]([C@H]2O[C@H](SC)[C@H](O)[C@@H](O)[C@H]2O)[C@@H](C)O)N(C)C1 [LINCOMYCIN]	Not Active	Not Active	Not Active	Not Active	Not Active	Not Active	Not Active	Not Active	Not Active	Not Active	Not Active	Not Active	–	–	–	–
NNc1ccccc1 [PHENYLHYDRAZINE]	Not Active	Not Active	Not Active	Not Active	Not Active	Not Active	Not Active	Not Active	Not Active	Not Active	Not Active	Not Active	–	–	–	–
NC(CO)(CO)CO [TROMETHAMINE]	Not Active	Not Active	Not Active	Not Active	Not Active	Not Active	Not Active	Not Active	Not Active	Not Active	Not Active	Not Active	–	–	–	–
COC(=O)C1=C(C)NC(C)=C(C(=O)OC)C1c1ccccc1[N+](=O)[O-] [NIFEDIPINE]	Not Active	Not Active	–	–	Not Active	Not Active	Not Active	Not Active	Not Active	Not Active	Not Active	–	48	31	7.7	4.49
CC[C@H]1OC(=O)[C@H](C)[C@@H](O[C@H]2C[C@@](C)(OC)[C@@H](O)[C@H](C)O2)[C@H](C)[C@@H](O[C@@H]2O[C@H](C)C[C@H](N(C)C)[C@H]2O)[C@](C)(O)C[C@@H](C)/C(=N\OCOCCOC)[C@H](C)[C@@H](O)[C@]1(C)O [ROXITHROMYCIN]	Not Active	Not Active	Not Active	Not Active	Not Active	Not Active	Not Active	Not Active	Not Active	Not Active	Not Active	Not Active	–	–	–	–
CC(C)[C@H](N)C(=O)OCCOCn1cnc2c(=O)nc(N)[nH]c21 [VALACYCLOVIR]	Not Active	Not Active	Not Active	Not Active	Not Active	Not Active	Not Active	Not Active	Not Active	Not Active	Not Active	Not Active	–	–	–	–
NC(=O)c1ncn([C@@H]2O[C@H](CO)[C@@H](O)[C@H]2O)n1 [RIBAVIRIN]	Not Active	Not Active	Not Active	Not Active	Not Active	Not Active	Not Active	Not Active	Not Active	Not Active	Not Active	Not Active	–	–	–	–
COC(=O)c1ccc(O)cc1 [METHYLPARABEN]	Not Active	Not Active	Not Active	Not Active	Not Active	Not Active	Not Active	Not Active	Not Active	Not Active	Not Active	Not Active	–	–	–	–
COc1ccc(C(CN(C)C)C2(O)CCCCC2)cc1 (stereo not drawn) [VENLAFAXINE]	Not Active	Not Active	Not Active	Not Active	Not Active	Not Active	Not Active	Not Active	Not Active	Not Active	Not Active	Not Active	–	–	–	–
COS(C)(=O)=O [METHANESULFONIC ACID METHYL ESTER]	Not Active	Not Active	Not Active	Not Active	Not Active	Not Active	Not Active	Not Active	Not Active	Not Active	Not Active	Not Active	–	–	–	–
CC1=C(/C=C/C(C)=C/C=C/C(C)=C\C(=O)O)C(C)(C)CCC1 [ISOTRETINOIN]	Not Active	Not Active	Not Active	Not Active	Not Active	Not Active	Not Active	Not Active	Not Active	Not Active	Not Active	Not Active	–	–	–	–
